Assay results from ChEMBL document CHEMBL5029158, “Design, structure-activity relationship study and biological evaluation of the thieno[3,2-c]isoquinoline scaffold as a potential anti-cancer agent” (Bioorg Med Chem Lett, 2021).
Calls of active or inactive are those of the source. No cut-off for these calls is given here.

Assays:
A549 [1] = assay: Cytotoxicity against human A549 cells assessed as reduction in cell viability; assay type: functional, cell-based
A549 [2] = assay: Potency index, ratio of […] for cytotoxicity against human A549 cells assessed as reduction in cell viability; assay type: functional
[3] = Selectivity index, ratio of IC50 for cytotoxicity against human fibroblasts to IC50 for human HCT-116 cells; assay type: toxicity, cell-based; conditions: human fibroblasts versus HCT-116 cells, read-out: Selectivity Index
[4] = Selectivity index, ratio of IC50 for cytotoxicity against human fibroblasts to IC50 for human A549 cells; assay type: toxicity, cell-based; conditions: human fibroblasts versus A549 cells, read-out: Selectivity Index
A549 [5] = assay: Induction of mitotic arrest in human A549 cells assessed as reduction in microtubule network with fragmented spindle poles at 0.50 uM measured after 8 hrs by DAPI/ACA staining based fluorescence microscopic analysis; assay type: functional, cell-based; conditions: dose 0.5 µM
HFF-1 = assay: Cytotoxicity against human HFF-1 cells assessed as reduction in cell viability; assay type: cell-based
[6] = Selectivity index, ratio of IC50 for cytotoxicity against human fibroblasts to IC50 for human MDA-MB-231 cells; assay type: toxicity, cell-based; conditions: human fibroblasts versus MDA-MB-231 cells, read-out: Selectivity Index
Tubulin (Homo sapiens) [7] = biological target: T1, Tubulin (Homo sapiens) (UniProt P68371+Q9H4B7+P0DPH7+P68366+Q13509+Q71U36+P04350+Q3ZCM7+P07437+P68363+Q9BQE3+Q6PEY2+Q13885+Q9BVA1+Q9BUF5); assay: Inhibition of microtubule (unknown origin) polymerization at 5 uM; assay type: protein-complex assay
Tubulin (Homo sapiens) [8] = biological target: T1, Tubulin (Homo sapiens); assay: Inhibition of colchicine binding to tubulin (unknown origin) at 1 uM by fluorescence assay; assay type: protein-complex assay
A549 [9] = assay: Cytotoxicity against human A549 cells assessed as cell death measured after 2 to 3 days; assay type: functional, cell-based; conditions: time 2-3 day
HCT-116 = assay: Cytotoxicity against human HCT-116 cells assessed as reduction in cell viability; assay type: functional, cell-based
Fibroblast = assay: Cytotoxicity against human fibroblasts assessed as reduction in cell viability; assay type: cell-based
[10] = Selectivity index, ratio of IC50 for cytotoxicity against human fibroblasts to IC50 for human HeLa cells; assay type: toxicity, cell-based; conditions: human fibroblasts versus HeLa cells, read-out: Selectivity Index
HeLa = assay: Cytotoxicity against human HeLa cells assessed as reduction in cell viability; assay type: functional, cell-based
A549 [11] = assay: Antitumor activity against human A549 cell assessed as disrupted in spheroid morphology at 0.5 to 1 uM measured after 6 days; assay type: functional, cell-based; conditions: dose 0.5-1 µM, time 6.0 day
MDA-MB-231 = assay: Cytotoxicity against human MDA-MB-231 cells assessed as reduction in cell viability; assay type: functional, cell-based
Tubulin (Homo sapiens) [12] = biological target: T1, Tubulin (Homo sapiens); assay: Inhibition of microtubule (unknown origin) polymerization at 0.6 uM; assay type: protein-complex assay

**Q.** For `CS(=O)(=O)N1Cc2ccccc2-c2sccc21`, which IC50 (A549 [1]) is on record?
**A.** The IC50 was greater than 10000 nM.

**Q.** For `CC(C)(C)c1ccc(S(=O)(=O)N2Cc3ccccc3-c3sc(Br)cc32)cc1`, which “Ratio IC50” value (A549 [2]) is on record?
**A.** The value was greater than 625.

**Q.** And the IC50 (A549 [1])?
**A.** The IC50 was greater than 10000 nM.

**Q.** Which IC50 (A549 [1]) does the source give for `Cc1cccc(S(=O)(=O)N2Cc3ccccc3-c3sccc32)c1` here?
**A.** The IC50 was 6000 nM.

**Q.** Which results are given for `COc1ccc(S(=O)(=O)N2Cc3ccccc3-c3sc(Cl)c(C)c32)cc1`?
**A.** Ratio IC50 (A549 [2]): 34.3; IC50 (A549 [1]): 550 nM

**Q.** With `O=S(=O)(c1ccc(C(F)(F)F)cc1)N1Cc2ccccc2-c2sccc21` as the compound, how does the IC50 (A549 [1]) read?
**A.** The IC50 was greater than 10000 nM.

**Q.** With `COc1ccc(S(=O)(=O)N2Cc3ccccc3-c3sc(Br)cc32)cc1` as the compound, how does the selectivity ratio [3] read?
**A.** Its selectivity ratio is 3.2.

**Q.** And the “Ratio IC50” value (A549 [2])?
**A.** The value was 23.1.

**Q.** What about the selectivity ratio [4] of the same compound?
**A.** The selectivity ratio was 3.8.

**Q.** What about the IC50 (A549 [1]) of the same compound?
**A.** The IC50 was 370 nM.

**Q.** And the Activity (A549 [5])?
**A.** Its Activity is “inactive”.

**Q.** What about the IC50 (HFF-1) of the same compound?
**A.** The IC50 was 790 nM.

**Q.** What about the selectivity ratio [6] of the same compound?
**A.** Its selectivity ratio is 5.3.

**Q.** What about the inhibition (Tubulin (Homo sapiens) [7]) of the same compound?
**A.** Its inhibition is “Active”.

**Q.** What about the inhibition (Tubulin (Homo sapiens) [8]) of the same compound?
**A.** The inhibition was “Active”.

**Q.** And the Activity (A549 [9])?
**A.** The Activity was “Active”.

**Q.** And the IC50 (HCT-116)?
**A.** Its IC50 is 430 nM.

**Q.** What about the IC50 (Fibroblast) of the same compound?
**A.** Its IC50 is 1400 nM.

**Q.** And the selectivity ratio [10]?
**A.** Its selectivity ratio is 3.2.

**Q.** What about the IC50 (HeLa) of the same compound?
**A.** The IC50 was 430 nM.

**Q.** What about the Activity (A549 [11]) of the same compound?
**A.** The Activity was “Active”.

**Q.** What about the IC50 (MDA-MB-231) of the same compound?
**A.** Its IC50 is 260 nM.

**Q.** What about the inhibition (Tubulin (Homo sapiens) [12]) of the same compound?
**A.** Its inhibition is “Active”.

**Q.** Which inhibition (Tubulin (Homo sapiens) [8]) does the source give for `COC(=O)Nc1nc2cc(C(=O)c3cccs3)ccc2[nH]1` here?
**A.** The inhibition was “Active”.

**Q.** For `O=S(=O)(c1ccccc1)N1Cc2ccccc2-c2sccc21`, which IC50 (A549 [1]) is on record?
**A.** Its IC50 is 5200 nM.

**Q.** Which “Ratio IC50” value (A549 [2]) does the source give for `COc1ccc(S(=O)(=O)N2Cc3ccccc3-c3sc(Cl)cc32)cc1` here?
**A.** The value was 36.8.

**Q.** And the IC50 (A549 [1])?
**A.** Its IC50 is 430 nM.

**Q.** With `O=S(=O)(c1cccs1)N1Cc2ccccc2-c2sccc21` as the compound, how does the IC50 (A549 [1]) read?
**A.** Its IC50 is greater than 10000 nM.

**Q.** Which results are given for `CS(=O)(=O)N1Cc2ccccc2-c2sc(Br)cc21`?
**A.** Ratio IC50 (A549 [2]): >625; IC50 (A549 [1]): > 10000 nM

**Q.** For `CC(C)(C)c1ccc(S(=O)(=O)N2Cc3ccccc3-c3sccc32)cc1`, which IC50 (A549 [1]) is on record?
**A.** The IC50 was greater than 10000 nM.

**Q.** With `O=S(=O)(c1ccccc1)N1Cc2ccccc2-c2sc(Br)cc21` as the compound, how does the “Ratio IC50” value (A549 [2]) read?
**A.** Its value is 118.7.

**Q.** And the IC50 (A549 [1])?
**A.** Its IC50 is 1900 nM.

**Q.** For `CC[C@]1(O)C[C@@H]2CN(CCc3c([nH]c4ccccc34)[C@@](C(=O)OC)(c3cc4c(cc3OC)N(C)[C@H]3[C@@](O)(C(=O)OC)[C@H](OC(C)=O)[C@]5(CC)C=CCN6CC[C@]43[C@@H]65)C2)C1`, which inhibition (Tubulin (Homo sapiens) [8]) is on record?
**A.** The inhibition was “inactive”.

**Q.** With `O=S(=O)(c1ccc(C(F)(F)F)cc1)N1Cc2ccccc2-c2sc(Br)cc21` as the compound, how does the “Ratio IC50” value (A549 [2]) read?
**A.** Its value is greater than 625.

**Q.** And the IC50 (A549 [1])?
**A.** The IC50 was greater than 10000 nM.

**Q.** What does the source list for `COc1ccc(S(=O)(=O)N2Cc3ccccc3-c3sc(Br)c(C)c32)cc1`?
**A.** Ratio IC50 (A549 [2]): 175; IC50 (A549 [1]): 2800 nM

**Q.** What does the source list for `COc1ccc(S(=O)(=O)N2Cc3ccccc3-c3sc(I)cc32)cc1`?
**A.** Ratio IC50 (A549 [2]): 48.7; IC50 (A549 [1]): 780 nM

**Q.** For `COc1cc2c(c(OC)c1OC)-c1ccc(OC)c(=O)cc1[C@@H](NC(C)=O)CC2` [COLCHICINE], which IC50 (A549 [1]) is on record?
**A.** Its IC50 is 16 nM.

**Q.** What about the IC50 (HCT-116) of the same compound?
**A.** The IC50 was 22 nM.

**Q.** What about the IC50 (HeLa) of the same compound?
**A.** The IC50 was 10 nM.

**Q.** With `Cc1ccc(S(=O)(=O)N2Cc3ccccc3-c3sccc32)cc1` as the compound, how does the IC50 (A549 [1]) read?
**A.** Its IC50 is 3400 nM.

**Q.** For `COc1ccc(S(=O)(=O)N2Cc3ccccc3-c3sccc32)cc1`, which IC50 (A549 [1]) is on record?
**A.** Its IC50 is 780 nM.

**Q.** With `Cc1ccc(S(=O)(=O)N2Cc3ccccc3-c3sc(Br)cc32)cc1` as the compound, how does the “Ratio IC50” value (A549 [2]) read?
**A.** Its value is 131.2.

**Q.** And the IC50 (A549 [1])?
**A.** Its IC50 is 2100 nM.

**Q.** Which “Ratio IC50” value (A549 [2]) does the source give for `Cc1cccc(S(=O)(=O)N2Cc3ccccc3-c3sc(Br)cc32)c1` here?
**A.** The value was 143.7.

**Q.** And the IC50 (A549 [1])?
**A.** Its IC50 is 2300 nM.

**Q.** What does the source list for `COc1ccc(S(=O)(=O)N2Cc3ccccc3-c3scc(C)c32)cc1`?
**A.** Ratio IC50 (A549 [2]): 39.3; IC50 (A549 [1]): 630 nM
